Earlier results in US20140140997A1, “Methods of Treating Retroviral Infections in Felines” (CytoDyn Inc., priority 2011, published 2014).

Columns and labels:
LFA-1 = settings: Wang et al. 2009; Almog 2003
CD11a binding to ICAM-1 = settings: Weitz-Schmidt et al. 2004; Welzenbach et al. 2002

Compound	inhibition of LFA-1 activation (LFA-1)	prevention of CD11a binding to ICAM-1 (CD11a binding to ICAM-1)
CCC(C)(C)C(=O)O[C@H]1C[C@@H](C)C=C2C=C[C@H](C)[C@H](CC[C@@H]3C[C@@H](O)CC(=O)O3)[C@H]21 [simvastatin, (1S,3R,7S,8S,8aR)-8-(2-((2R,4R)-4-hydroxy-6-oxotetrahydro-2H-pyran-2-yl)ethyl)-3,7-dimethyl-1,2,3,7,8,8a-hexahydronaphthalen-1-yl 2,2-dimethylbutanoate]	inhibit LFA-1 activation	
CC[C@H](C)C(=O)O[C@H]1C[C@@H](C)C=C2C=C[C@H](C)[C@H](CC[C@@H]3C[C@H](CC(=O)NC)N(Cc4ccc(O)c(OC)c4)C(=O)O3)[C@H]21 [LFA878]		preventing the ability of CD11a to bind to ICAM-1
CC[C@H](C)C(=O)O[C@H]1C[C@@H](C)C=C2C=C[C@H](C)[C@H](CC[C@@H]3C[C@@H](O)CC(=O)O3)[C@H]21 [Lovastatin, (1S,3R,7S,8S,8aR)-8-{2-[(2R,4R)-4-hydroxy-6-oxooxan-2-yl]ethyl}-3,7-dimethyl-1,2,3,7,8,8a-hexahydronaphthalen-1-yl (2S)-2-methylbutanoate]	inhibit LFA-1 activation	
O=C(NCc1cccc(O)c1)c1cc(Cl)c(C(=O)N[C@@H](CNC(=O)c2cc(O)cc(O)c2)C(=O)O)c(Cl)c1 [XVA143]		preventing the ability of CD11a to bind to ICAM-1
